Measured values from the NIST ThermoML archive (doi:10.1016/j.fluid.2015.06.045).
“And” between values parts separate entries of the source, which are not always exact repeats. Equal entries are not always repeated. Numbers after ± are expanded uncertainties.

Tests used:
[1] = Liquid, Closed cell (Static) method
[2] = molar heat capacity at constant pressure

CN1CCCC1=O [N-methylpyrrolidone]
[1]
Conditions	vapor or sublimation pressure
273.65 K	0.00631 ± 0.00016 kPa and 0.0063 ± 0.00016 kPa
278.15 K	0.0094 ± 0.00019 kPa and 0.00937 ± 0.00019 kPa and 0.00938 ± 0.00019 kPa
283.15 K	0.01432 ± 0.00024 kPa
288.15 K	0.02159 ± 0.00032 kPa and 0.02162 ± 0.00032 kPa
293.15 K	0.03193 ± 0.00042 kPa and 0.03195 ± 0.00042 kPa and 0.03196 ± 0.00042 kPa
298.15 K	0.04664 ± 0.00057 kPa and 0.04665 ± 0.00057 kPa and 0.0466 ± 0.00057 kPa
303.15 K	0.06708 ± 0.00077 kPa and 0.06709 ± 0.00077 kPa
308.15 K	0.09518 ± 0.001 kPa and 0.09516 ± 0.001 kPa
308.17 K	0.0951 ± 0.001 kPa

[2], 100 kPa, Ideal gas
Conditions	molar heat capacity at constant pressure [J/K/mol]
100 K	59.31 ± 3
150 K	72.28 ± 3.6
200 K	85.04 ± 4.2
250 K	99.6 ± 5
273.15 K	106.98 ± 5.3
298.15 K	115.26 ± 5.8
300 K	115.89 ± 5.8
400 K	149.87 ± 7.5
500 K	180.98 ± 9.1
600 K	207.43 ± 10
700 K	229.6 ± 11
800 K	248.26 ± 12
900 K	264.08 ± 13
1000 K	277.55 ± 14

[2], 101.33 kPa, Liquid, Large sample (1 g) DSC
Conditions	molar heat capacity at constant pressure
265.75 K	168.2 ± 2.9 J/K/mol and 168.12 ± 2.9 J/K/mol
270.85 K	169.2 ± 2.9 J/K/mol and 169.03 ± 2.9 J/K/mol
275.96 K	169.62 ± 2.9 J/K/mol and 169.86 ± 2.9 J/K/mol
281.07 K	170.95 ± 3 J/K/mol and 170.78 ± 3 J/K/mol
286.17 K	171.86 ± 3 J/K/mol
291.28 K	173.36 ± 3 J/K/mol and 172.86 ± 3 J/K/mol
296.38 K	173.94 ± 3 J/K/mol and 174.27 ± 3 J/K/mol
301.49 K	175.35 ± 3.1 J/K/mol and 175.52 ± 3.1 J/K/mol
306.59 K	176.52 ± 3.1 J/K/mol
311.69 K	177.93 ± 3.1 J/K/mol and 177.85 ± 3.1 J/K/mol
316.8 K	178.93 ± 3.1 J/K/mol and 179.09 ± 3.1 J/K/mol
321.9 K	180.01 ± 3.2 J/K/mol and 180.42 ± 3.2 J/K/mol
327.01 K	181.84 ± 3.2 J/K/mol and 181.75 ± 3.2 J/K/mol
332.12 K	183.25 ± 3.2 J/K/mol
337.22 K	184.41 ± 3.2 J/K/mol and 184.66 ± 3.2 J/K/mol
342.33 K	185.75 ± 3.2 J/K/mol and 186.16 ± 3.2 J/K/mol
347.43 K	187.24 ± 3.2 J/K/mol
352.54 K	188.57 ± 3.2 J/K/mol and 188.82 ± 3.2 J/K/mol
